Results as given in patent publication US9381238B2 (priority 2010, dated 2016).

Columns and labels:
[1] = tested on: H3N2 A/Moscow/10/99 virus; test: Copies of viral genome M/ml in supernatant of infected MDCK cells by RT-qPCR; assay type: cell-based, H3N2 A/Moscow/10/99 virus in MDCK cells (dog); settings: MOI 10^−3, 0.1, 1 and 10 μM
Method: (§1) FIGS. 2 to 7 show the observed amounts of copies of viral genome M/ml in the culture supernatant (M for the segment of viral genome encoding the M1 and M2 viral proteins), with various culture conditions and after various infection times.
(§2) For all the following examples, the experiments were carried out at a temperature of 37° C. The culture medium used is DMEM (Ref 41966, Gibco), supplemented with trypsin (1 ug/mL, Sigma) during the infections.
The MDCK line (ATCC No. CCL-34) is the most widely used line for the laboratory production of influenza virus. It is a cell line which is also registered and with which batches of vaccine have been produced by Novartis and Solvay.
At 24 hpi, up to 19 times more copies of genome M/ml are obtained in the presence of Nutlin-3 compared with the control.

[2] = tested on: H3N2 A/Moscow/10/99 virus; test: Infectious titer (TCID50/ml) in supernatant of infected A549 cells; assay type: cell-based, H3N2 A/Moscow/10/99 virus in human A549 cells; settings: A549, from 24 hpi onward, presence vs absence of Nutlin-3 (FIG. 2A)
[3] = tested on: H3N2 A/Moscow/10/99 virus; test: Cytopathic effects induced by influenza virus on A549 cell layer (photon microscopy); assay type: cell-based, H3N2 A/Moscow/10/99 virus in human A549 cells; settings: A549, 10 μM, MOI 2×10^−3, from 24 hpi onward, molecule added 14 h before infection and retained (FIG. 1)
Method: as §2
A549 cells (ATCC, American Type Culture Collection CCL185) are cells derived from a lung carcinoma. […] Several ex-vivo studies on lung tissues from infected patients have shown that epithelial cells of this type probably constitute the primary influenza virus infection site (Nicholls et al. Nat. Med. 2007 February; 13(2):147-9, van Riel et al. Science. 2006 Apr. 21; 312(5772):399). These cells are therefore considered to be relevant for studying influenza viruses and are, consequently, very widely used in the field of fundamental research on influenza viruses.
The observation and monitoring of the cytopathic effects induced by the virus over time generally allow a first evaluation of the degree of infection of the cell layer. The cytopathic effect induced by the virus is characterized in particular by fusion of the infected cells with one another, forming multinucleated cell structures (syncytia). By photon microscopy, observation of the amount and of the scale of these structures on the cell layer makes it possible to obtain an estimation of the degree of infection.

[4] = tested on: H3N2 A/Moscow/10/99 virus; test: Copies of viral genome M/ml in supernatant of infected A549 cells by real-time RT-qPCR; assay type: cell-based, H3N2 A/Moscow/10/99 virus in human A549 cells; settings: for times more copies of genome in supernatant than control without Nutlin-3: A549, 10 hpi (single viral cycle); for times more copies M/ml of supernatant than the control: MOI 10^−3, pretreatment
Method: as §1, §2
In order to gain a more precise idea, the quantification of the number of copies of viral genome M/ml of supernatant was then carried out, by extraction of the viral RNAs and quantification by real-time RT-qPCR (FIG. 2B). At 48 hpi, 6.66×10^6 copies M/ml were measured in the absence of Nutlin-3, compared with 2.44×10^8 copies M/ml in the presence of Nutlin-3, i.e. a gain of more than 36-fold in terms of viral production. The same calculation performed at 72 hpi indicates a gain of 88-fold in favor of the conditions where Nutlin-3 is used.
The A549 cells were infected with various amounts of virus (MOI 0.01, 0.1 and 1), in the presence or absence of Nutlin-3, and the amount of copies M/ml of supernatant was measured by RT-qPCR after a single viral cycle (10 hpi) or after several viral cycles (28 hpi). The cells were brought into contact with Nutlin-3, either 14 h before the infection (T=−14 h), or immediately at the time of infection (T=0 h) (FIG. 3). In any event, the Nutlin-3 is added in one go.
A similar experiment was carried out with an MOI of 10^−3, while modifying the time at which the pretreatment is carried out (14 h compared with 10 h before infection). At 48 hpi, Nutlin-3 makes it possible to obtain 1.5, 5.7 and 40 times more copies M/ml of supernatant than the control for respective concentrations of 0.1, 1 and 10 μM (FIG. 4).
This molecule was used at concentrations of 2 and 20 μM with an MOI of 10^−3.

Row | Compound | times more copies of genome M/ml compared with the control ([1]; 24 hpi, pretreatment 14 h before infection (FIG. 5)) | effect on viral titer (copies of genome M/ml) in cell supernatants ([1]; pretreatment 14 h before infection, after several consecutive viral cycles (FIG. 5)) | gain in infectious titer (TCID50/ml) in the supernatant [2] | cytopathic effect compared with infected cells without Nutlin-3 [3] | times more copies of genome in supernatant than control without Nutlin-3 ([4]; treatment started at T=0, MOI 0.1 (FIG. 3)) [times] | times more copies of genome in supernatant than control without Nutlin-3 ([4]; treatment started at T=0, MOI 1 (FIG. 3)) [times] | gain in viral production (copies M/ml) vs absence of Nutlin-3 ([4]; A549, 48 hpi (FIG. 2B)) | times more copies M/ml of supernatant than the control ([4]; A549, 48 hpi, 0.1 μM (FIG. 4)) [times] | times more copies M/ml of supernatant than the control ([4]; A549, 48 hpi, 1 μM (FIG. 4)) [times] | times more copies M/ml of supernatant than the control ([4]; A549, 48 hpi, 10 μM (FIG. 4)) [times] | copies of viral genome M/ml of supernatant ([4]; A549, 48 hpi, in the presence of Nutlin-3 (FIG. 2B)) | gain in viral production (copies M/ml) vs absence of Nutlin-3 ([4]; A549, 72 hpi (FIG. 2B)) [fold] | times more copies of genome M in the supernatant compared with the control ([4]; A549, 48 hpi, MOI 10^−3, 2 μM (FIG. 6)) | times more copies of genome M in the supernatant compared with the control ([4]; A549, 72 hpi, MOI 10^−3, 20 μM (FIG. 6))
1 | COc1ccc(C2=NC(c3ccc(Cl)cc3)C(c3ccc(Cl)cc3)N2C(=O)N2CCNC(=O)C2)c(OC(C)C)c1 (racemic) [Nutlin-3, (±)-4-[4,5-bis(4-chlorophenyl)-2-(2-isopropoxy-4-methoxy-phenyl)-4,5-dihydroimidazole-1-carbonyl]piperazin-2-one] | up to 19 times | greatly increases the viral titer | gain of one log 10 difference | more marked cytopathic effect | 11 | 50 | more than 36 fold | 1.5 | 5.7 | 40 | 2.44×10^8 copies M/ml | 88 | – | –
2 | Cc1ccc2ccc(C(Nc3ccccc3)c3ccccc3)c(O)c2n1 (centres unmarked) [NSC66811, 2-methyl-7-[phenyl(phenylamino)methyl]-8-quinolinol] | – | – | – | – | – | – | – | – | – | – | – | – | approximately 6 times | approximately 5 times
